From PMC9841576, “Characterisation of C101248: A novel selective THIK-1 channel inhibitor for the modulation of microglial NLRP3-inflammasome” (Neuropharmacology, 2023)

Legend:
TREK-1 = molecular target: T1, TREK-1 (Homo sapiens, UniProt O95069); test: FLIPR thallium influx assay, HEK-hTREK-1 cells; format: cell-based; conditions: HEK-hTREK-1, at 30 μM, compared to TPA controls; read-out: inhibition of constitutive activity
T1 construct: expressed in transfected cells
Protocol: HEK-293 cells were transfected with human THIK-1, TREK-1, TWIK-2, or mouse THIK-1 cDNA cloned into pcDNA3.1, using either Fugene HD transfection reagent (Promega) or electroporation (MaxCyte STX instrument). Cells stably expressing the relevant genes were selected based on resistance to 500 μg/ml geneticin (Gibco). For human THIK-1 and TWIK-2 expressing cells, monoclonal lines were isolated by limited dilution cloning; mouse THIK-1 and human TREK-1 expressing cells were maintained as polyclonal pools. The HEK-293 pools and monoclones stably expressing the relevant genes were maintained in DMEM (Life Technologies), supplemented with 10% FCIII (HyClone, Fetal clone III) and 500 μg/ml geneticin. A CHO-Kv2.1 cell line was purchased from Millipore (accession NM_004975) and maintained in F12 (Life Technologies), supplemented with 10% FCSIII (Thermo Scientific) and 500 μg/ml geneticin (Life Technologies). […]
A fluorescence-based thallium influx assay (Molecular Devices potassium assay kit) was used to monitor channel activity. […] Using a fluorescent imaging plate reader (FLIPR) tetra plate reader, 15 μl thallium stimulus solution was added to the cell plate and the fluorescence signal recorded every second for 1 min (excitation: 470–495 nm, emission: 515–575 nm).

p70S6K (h) = p70S6K (h) (Homo sapiens, UniProt P23443); test: Kinase selectivity; format: biochemical
Excerpt: (§1) Supplement mmc1.docx, table 1 | column: IC50 (μM)

GSK3β (h) = GSK3β (h) (Homo sapiens, UniProt P49841); test: Kinase selectivity; format: biochemical
Excerpt: as §1

CNS PK study in rats = format: in vivo; conditions: Sprague Dawley, rat, brain (unbound) / plasma (unbound), 10 or 30 mg/kg oral, 1, 2 or 4 h post dose, read-out: Kpu,u
Protocol: In CNS PK studies, rodents (C57BL/6 mice or Sprague Dawley rats) were administered C101248 by oral gavage at 10 or 30 mg/kg. At specified timepoints post dose (0.5, 1, 2 or 4 h), blood samples were collected and processed to plasma (centrifugation at 5000 rpm, 4 °C for 10 min). Immediately following blood withdrawal, cerebrospinal fluid (CSF) samples were collected from the cisterna magna, whole body perfusion was conducted, and brain samples were collected and weighed. Samples were stored frozen at −80 ± 10 °C until analysis. Plasma, CSF, and brain samples were analysed using a fit for purpose bioanalytical method (LC-MS/MS) against a calibration curve containing QC samples. Brain:plasma and CSF:plasma were calculated based on brain concentration/plasma concentration at the same timepoint. Unbound partition coefficient (Kpu,u) values were calculated based on unbound brain concentration/unbound plasma concentration at the same timepoint. Unbound concentrations were derived by adjusting plasma concentrations for the fraction unbound in plasma based on in vitro plasma protein binging (PPB) values and brain concentrations for the unbound fraction in brain tissue based on in vitro brain tissue binding (BTB) values.

[1] = test system: NLRP3-dependent release of IL-1β; test: LPS/ATP-induced IL-1β release from adult microglia; format: cell-based, mouse; conditions: 0.1 and 1 μM
Protocol: Microglia were isolated from C57BL/6 male and female mice aged 6–10 weeks (Charles River, UK) as previously described ([Drinkall et al., 2022]). In brief, brains were isolated, minced, and digested using a Neural Tissue Dissociation Kit (Miltenyi Biotec Ltd., UK) according to manufacturer's instructions. The resulting suspension was dissociated using a Dounce tissue grinder (Sigma). Myelin was removed by centrifuging cell suspension in 33% Percoll (GE Healthcare) for 10 min at 1000 g with low break and aspiration of myelin layer. Cells were pelleted by diluting 1:4 in Ca^2+/Mg^2+ free Hank's balanced salt solution (CMF-HBSS, Gibco) and centrifuged for 10 min at 500 g. […] The eluted microglia were counted and plated onto 96-well Cell + plates (Sarstedt) at a density of 30,000 cells per well in culture medium (DMEM/F12, 10% FBS, 1% PenStrep, 2 mM glutamine, 20 ng/ml IL-34 (R&D Systems), and 50 ng/ml transforming growth factors-β1 (Miltenyi Biotec Ltd., UK)). […]
IL-1β from culture supernatants was measured with DuoSet ELISA kit (R&D Systems) following the manufacturer instructions.

T1 sequence (O95069 whole entry): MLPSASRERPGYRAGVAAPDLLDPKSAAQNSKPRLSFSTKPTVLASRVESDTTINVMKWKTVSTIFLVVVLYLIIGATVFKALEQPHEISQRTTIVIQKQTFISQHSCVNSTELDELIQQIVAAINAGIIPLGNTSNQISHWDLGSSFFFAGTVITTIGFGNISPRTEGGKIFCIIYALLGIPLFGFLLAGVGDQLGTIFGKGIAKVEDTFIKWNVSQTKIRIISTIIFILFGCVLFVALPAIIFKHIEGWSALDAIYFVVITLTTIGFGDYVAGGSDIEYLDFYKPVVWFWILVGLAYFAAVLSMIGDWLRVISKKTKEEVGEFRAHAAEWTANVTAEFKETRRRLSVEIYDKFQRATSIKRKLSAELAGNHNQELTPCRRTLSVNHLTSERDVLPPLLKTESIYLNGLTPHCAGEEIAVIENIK
p70S6K (h), sequence (P23443 whole entry): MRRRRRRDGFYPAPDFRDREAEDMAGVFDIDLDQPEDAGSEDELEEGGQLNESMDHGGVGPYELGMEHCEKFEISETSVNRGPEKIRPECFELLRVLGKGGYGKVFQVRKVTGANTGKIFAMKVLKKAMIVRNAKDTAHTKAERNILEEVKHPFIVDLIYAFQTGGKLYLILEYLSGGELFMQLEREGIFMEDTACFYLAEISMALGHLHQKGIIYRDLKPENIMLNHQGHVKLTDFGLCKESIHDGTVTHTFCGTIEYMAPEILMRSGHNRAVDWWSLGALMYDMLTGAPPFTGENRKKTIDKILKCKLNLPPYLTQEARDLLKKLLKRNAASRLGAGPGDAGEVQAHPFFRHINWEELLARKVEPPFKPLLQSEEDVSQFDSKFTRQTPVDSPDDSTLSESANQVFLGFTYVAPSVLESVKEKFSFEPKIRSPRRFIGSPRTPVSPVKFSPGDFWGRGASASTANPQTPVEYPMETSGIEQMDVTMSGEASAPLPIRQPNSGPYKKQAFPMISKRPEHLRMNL
GSK3β (h), sequence (P49841 whole entry): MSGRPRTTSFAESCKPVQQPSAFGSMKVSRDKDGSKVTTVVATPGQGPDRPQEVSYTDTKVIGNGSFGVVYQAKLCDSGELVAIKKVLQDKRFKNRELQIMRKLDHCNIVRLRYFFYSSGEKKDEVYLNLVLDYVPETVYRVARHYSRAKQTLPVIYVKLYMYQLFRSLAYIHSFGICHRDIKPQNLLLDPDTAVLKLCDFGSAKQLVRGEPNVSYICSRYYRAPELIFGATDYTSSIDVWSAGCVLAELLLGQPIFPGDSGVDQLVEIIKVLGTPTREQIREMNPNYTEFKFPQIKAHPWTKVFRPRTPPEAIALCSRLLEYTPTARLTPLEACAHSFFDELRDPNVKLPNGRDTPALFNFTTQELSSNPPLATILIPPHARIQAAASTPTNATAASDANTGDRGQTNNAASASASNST

- inhibition at 30 µM (TREK-1): 18%
- IC50 (p70S6K (h)): > 10 µM
- IC50 (GSK3β (h)): > 10 µM
- Kp (CNS PK study in rats): 0.55 to 0.95
Compound: Nc1nonc1-c1nc2ccccc2n1Cc1ccncc1 [C101248]
- effect on LPS/ATP-induced IL-1β release [1]: significantly attenuated
